According to US20220033405A1, “PHARMACEUTICAL COMPOSITION FOR PREVENTING OR TREATING CANCER CONTAINING PLK1 INHIBITOR AS ACTIVE INGREDIENT” (NATIONAL CANCER CENTER, priority 2018, published 2022):

Test: Toxicity test, histopathological analysis of organs
Assay type: in vivo, mouse
Conditions: 1, 5 and 10 mg/kg intraperitoneally 3 times weekly, 2 weeks
Description: Compound 4 (M21) was diluted in 300 μl of PBS and intraperitoneally injected 3 times weekly at 1 mg/kg, 5 mg/kg and 10 mg/kg per body weight of a mouse, respectively, and DMSO diluted in 300 μl of PBS was intraperitoneally injected at 3% in the control. After 2 weeks, the lungs, heart, liver, kidneys, spleen and skin were removed by sacrificing mice, and fixed in a formalin solution.

## Cn1c2nc(=O)[nH]c(=O)c-2nc2cc(C(F)(F)F)ccc21 [Compound 4, 10-methyl-7-(trifluoromethyl)-2H,3H,4H,10H-benzo[g]pteridine-2,4-dione]
  histopathological analysis of lungs, heart, liver, kidneys, spleen and skin: No change by separate acute toxicity was observed
